Reference: patent US10227331B2 (priority 2015, dated 2019)
pIC50: −log10 of the molar value.

Key:
[1] = tested on: Klebsiella pneumoniae expressing VIM-1 (IHMA599644); format: cell-based; details: with imipenem 1 μg/ml, 95% inhibition of bacterial growth; for Klebsiella pneumoniae MITC95: VIM-1 (IHMA599644)
How it was run: (§1)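 Clinical strains grown overnight on blood agar, then diluted 1:100 in 1.1× CAMHB and exposed to test compound with imipenem at 1 μg/ml. Incubation was 22–24 h at 35° C; growth was read by absorbance to find the compound concentration restoring imipenem susceptibility.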

[2] = tested on: Serratia marcescens expressing IMP-1 (CL5741); format: cell-based; details: with imipenem 1 μg/ml, 95% inhibition of bacterial growth; for Serratia marcescens MITC95: IMP-1 (CL5741)
How it was run: as §1

[3] = tested on: Escherichia coli expressing NDM-1 (CLB30005, CLB30016); format: cell-based; details: with imipenem 1 μg/ml, 95% inhibition of bacterial growth; for Escherichia coli MITC95: NDM-1 (CLB30016)
How it was run: as §1

IMP-1 = IMP-1 (Serratia marcescens, UniProt P52699); assay: biochemical; format: biochemical; details: CCF2-FA substrate, 2 hours at 25° C; read-out: IMP-1 IC50
IMP-1, sequence (P52699 whole entry, looked up, species assumed): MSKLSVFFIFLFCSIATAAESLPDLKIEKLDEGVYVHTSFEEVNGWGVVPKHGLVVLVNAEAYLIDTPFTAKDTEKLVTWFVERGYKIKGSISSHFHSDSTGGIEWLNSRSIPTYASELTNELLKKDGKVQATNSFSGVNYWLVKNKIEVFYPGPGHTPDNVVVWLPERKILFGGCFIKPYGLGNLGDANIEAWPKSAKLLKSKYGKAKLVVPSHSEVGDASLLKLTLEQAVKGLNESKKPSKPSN
How it was run: (§2)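 Fluorescence assay of metallo-β-lactamase activity using CCF2-FA, a cephalosporin-linked 7-hydroxycoumarin–fluorescein substrate. Inhibitor, enzyme and substrate were incubated together for 2 hours at 25° C. IC50 came from a 4-parameter fit of inhibition versus inhibitor concentration.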

NDM-1 = NDM-1 (Klebsiella pneumoniae, UniProt C7C422); assay: biochemical; format: biochemical; details: CCF2-FA substrate, 2 hours at 25° C; read-out: NDM-1 IC50
NDM-1, sequence (C7C422 whole entry, looked up, species assumed): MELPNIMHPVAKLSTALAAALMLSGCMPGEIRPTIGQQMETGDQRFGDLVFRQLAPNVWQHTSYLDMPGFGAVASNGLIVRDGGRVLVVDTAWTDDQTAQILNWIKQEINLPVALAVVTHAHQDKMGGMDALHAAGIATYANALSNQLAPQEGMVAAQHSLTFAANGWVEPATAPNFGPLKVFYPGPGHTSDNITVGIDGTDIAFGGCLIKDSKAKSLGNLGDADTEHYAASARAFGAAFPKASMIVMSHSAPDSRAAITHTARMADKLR
How it was run: as §2

[4] = tested on: P. aeruginosa expressing IMP-1, efflux− (MB9799); assay: Efflux: concentration of MBL inhibitor which restores susceptibility to imipenem; format: cell-based, Pseudomonas aeruginosa; details: imipenem at 2 μg/mL, in the presence of a class A, C, D serine β-lactamase inhibitor closely related to relebactam
From the text: (§3) The strain background is Pseudomonas aeruginosa PAO1.

[5] = tested on: P. aeruginosa expressing IMP-1, efflux+ (MB9798); format: cell-based, Pseudomonas aeruginosa; details: for P. aeruginosa expressing IMP-1, efflux+ (MB9798) MITC95: imipenem at 2 μg/mL, in the presence of a class A, C, D serine β-lactamase inhibitor closely related to relebactam; for Efflux ratio: ratio MITC95 PA_9798/MITC95 PA_9799
From the text: as §3

VIM-1 = VIM-1 (Pseudomonas aeruginosa (strain ATCC 15692 / DSM 22644 / CIP 104116 / JCM 14847 / LMG 12228 / 1C / PRS 101 / PAO1), UniProt A0A0F7KYQ8); assay: biochemical; details: CCF2-FA substrate, 2 hours at 25° C
How it was run: as §2

Row | Compound | Klebsiella pneumoniae expressing VIM-1 (IHMA599644) MITC95 [1] [µM] | Serratia marcescens expressing IMP-1 (CL5741) MITC95 [2] [µM] | Escherichia coli expressing NDM-1 (CLB30016) MITC95 [3] [µM] | pIC50 (IMP-1) | pIC50 (NDM-1) | P. aeruginosa expressing IMP-1, efflux− (MB9799) MITC95 [4] [µM] | P. aeruginosa expressing IMP-1, efflux+ (MB9798) MITC95 [5] [µM] | Efflux ratio [5] | pIC50 (VIM-1) | Klebsiella pneumoniae MITC95 [1] [µM] | Serratia marcescens MITC95 [2] [µM] | Escherichia coli MITC95 [3] [µM]
1 | NCCS(=O)(=O)c1ccc(-c2ccnc(N)c2)c(-c2nnn[nH]2)c1S(N)(=O)=O.O=C(O)C(F)(F)F [Example 141, 2-((4-(2-aminopyridin-4-yl)-2-sulfamoyl-3-(1H-tetrazol-5-yl)phenyl)sulfonyl)ethanaminium 2,2,2-trifluoroacetate] | 1.781 | 0.8906 | 0.25 | 8.31 | 8.36 | 0.8906 | 6.25 | 7.02 | 9.00 |  |  | 
2 | Nc1nc2ccc(-c3ccc(S(=O)(=O)C4CNC4)c(S(N)(=O)=O)c3-c3nn[nH]n3)cc2o1 [Example 29, 3-(2-aminobenzo[d]oxazol-6-yl)-6-(azetidin-3-ylsulfonyl)-2-(2H-tetrazol-5-yl)benzenesulfonamide] | 3.125 | 1.563 | 1.563 | 9.50 | 9.62 | 1.563 | 3.125 | 2.00 | 9.48 |  |  | 
3 | NC[C@@H](CO)S(=O)(=O)c1ccc(-c2cccc3nc(N)[nH]c23)c(-c2nn[nH]n2)c1S(N)(=O)=O [Example 358, (S)-3-(2-amino-1H-benzo[d]imidazol-7-yl)-6-((1-amino-3-hydroxypropan-2-yl)sulfonyl)-2-(1H-tetrazol-5-yl) benzenesulfonamide] |  |  |  | 8.94 | 9.66 | 0.7813 | 0.7813 | 1.00 | 9.10 | 1.563 | 0.7813 | 0.7813
4 | C[C@@H](CN)S(=O)(=O)c1ccc(-c2cccc3c2nc(N)n3C)c(-c2nn[nH]n2)c1S(N)(=O)=O [Example 280, 3-(2-amino-1-methyl-1H-benzo[d]imidazol-4-yl)-6-((S)-1-aminopropan-2-ylsulfonyl)-2-(2H-tetrazol-5-yl)benzenesulfonamide] |  |  |  | 9.02 | 9.65 | 0.7813 | 3.125 | 4.00 | 9.35 | 1.563 | 0.7813 | 0.3906
5 | NCCS(=O)(=O)c1ccc(-c2cccc3cn[nH]c23)c(-c2nnn[nH]2)c1S(N)(=O)=O [Example 298, 6-((2-aminoethyl)sulfonyl)-3-(1H-indazol-7-yl)-2-(1H-tetrazol-5-yl) benzenesulfonamide] |  |  |  | 9.52 | 9.37 | 0.7813 | 1.563 | 2.00 | 9.59 | 1.563 | 1.563 | 0.7813
6 | CC(=O)Nc1ccc(-c2ccc(S(=O)(=O)CCN)c(S(N)(=O)=O)c2-c2nnn[nH]2)cn1.O=C(O)C(F)(F)F [Example 135, 2-((4-(6-acetamidopyridin-3-yl)-2-sulfamoyl-3-(1H-tetrazol-5-yl)phenyl)sulfonyl)ethanaminium 2,2,2-trifluoroacetate] | 6.25 | 3.125 | 0.7813 | 8.78 | 9.58 | 1.563 | 3.125 | 2.00 | 8.92 |  |  | 
7 | Nc1nc2c(-c3ccc(S(=O)(=O)[C@H]4C[C@@H](N)C4)c(S(N)(=O)=O)c3-c3nn[nH]n3)cccc2s1 [Example 180, 3-(2-aminobenzo[d]thiazol-4-yl)-6-((1s,3s)-3-aminocyclobutylsulfonyl)-2-(2H-tetrazol-5-yl)benzenesulfonamide] | 3.125 | 1.563 | 3.125 | 9.58 | 10.08 | 0.7813 | 0.7813 | 1.00 | 9.71 |  |  | 
8 | Cn1c(N)nc2c(-c3ccc(S(=O)(=O)C4CNC4)c(S(N)(=O)=O)c3-c3nn[nH]n3)cccc21 [Example 22, 3-(2-amino-1-methyl-1H-benzo[d]imidazol-4-yl)-6-(azetidin-3-ylsulfonyl)-2-(2H-tetrazol-5-yl)benzenesulfonamide] | 1.563 | 0.7813 | 0.3906 | 9.36 | 9.79 | 0.7813 | 1.563 | 2.00 | 9.67 |  |  | 
9 | CCOC(=O)Nc1nc2c(-c3ccc(S(=O)(=O)CCN)c(S(N)(=O)=O)c3-c3nn[nH]n3)cccc2s1 [Example 84, ethyl 4-(4-(2-aminoethylsulfonyl)-3-sulfamoyl-2-(2H-tetrazol-5-yl)phenyl)benzo[d]thiazol-2-ylcarbamate] | 3.125 | 1.563 | 1.563 | 9.84 | 10.11 | 1.563 | 6.25 | 4.00 | 9.86 |  |  | 
10 | N#CC1(c2ccc(-c3ccc(S(=O)(=O)CCN)c(S(N)(=O)=O)c3-c3nnn[nH]3)cn2)CNC1.O=C(O)C(F)(F)F [Example 132, 2-((4-(6-(3-cyanoazetidin-3-yl)pyridin-3-yl)-2-sulfamoyl-3-(1H-tetrazol-5-yl)phenyl)sulfonyl)ethanaminium 2,2,2-trifluoroacetate] | 3.125 | 1.563 | 0.7813 | 8.83 | 8.46 | 1.563 | 6.25 | 4.00 | 8.81 |  |  | 
11 | NS(=O)(=O)c1c(S(=O)(=O)C2CNC2)ccc(-c2cccc3[nH]c(=O)[nH]c23)c1-c1nnn[nH]1 [Example 299, 6-(azetidin-3-ylsulfonyl)-3-(2-oxo-2,3-dihydro-1H-benzo[d]imidazol-4-yl)-2-(1H-tetrazol-5-yl) benzenesulfonamide] |  |  |  | 8.84 | 9.73 | 3.125 | 3.125 | 1.00 | 9.52 | 6.25 | 3.125 | 3.125
12 | Nc1nc2c(-c3ccc(S(=O)(=O)C4CNC4)c(S(N)(=O)=O)c3-c3nn[nH]n3)cccc2n1CCO [Example 373, 3-(2-Amino-1-(2-hydroxyethyl)-1H-benzo[d]imidazol-4-yl)-6-(azetidin-3-ylsulfonyl)-2-(2H-tetrazol-5-yl)benzenesulfonamide] |  |  |  | 9.39 | 9.86 | 1.563 | 1.563 | 1.00 | 9.61 | 3.125 | 1.563 | 0.7813
13 | NCCS(=O)(=O)c1ccc(-c2cccc3c2NC(=O)C3O)c(-c2nnn[nH]2)c1S(N)(=O)=O (stereo not drawn) [Example 347, 6-((2-Aminoethyl)sulfonyl)-3-(3-hydroxy-2-oxoindolin-7-yl)-2-(1H-tetrazol-5-yl)benzenesulfonamide] |  |  |  | 8.87 | 8.76 | 3.125 | 12.5 | 4.00 | 9.03 | 6.25 | 1.563 | 3.125
